Assay results published in paper PMC3504484 (Journal of Medicinal Chemistry, 2012).
Like-named read-outs stand apart in the source and are kept apart here.

Columns and labels:
5-HT3A receptor = target: T1, 5-HT3A receptor (Homo sapiens, UniProt P46098); format: binding
T1 sequence (P46098 24-478): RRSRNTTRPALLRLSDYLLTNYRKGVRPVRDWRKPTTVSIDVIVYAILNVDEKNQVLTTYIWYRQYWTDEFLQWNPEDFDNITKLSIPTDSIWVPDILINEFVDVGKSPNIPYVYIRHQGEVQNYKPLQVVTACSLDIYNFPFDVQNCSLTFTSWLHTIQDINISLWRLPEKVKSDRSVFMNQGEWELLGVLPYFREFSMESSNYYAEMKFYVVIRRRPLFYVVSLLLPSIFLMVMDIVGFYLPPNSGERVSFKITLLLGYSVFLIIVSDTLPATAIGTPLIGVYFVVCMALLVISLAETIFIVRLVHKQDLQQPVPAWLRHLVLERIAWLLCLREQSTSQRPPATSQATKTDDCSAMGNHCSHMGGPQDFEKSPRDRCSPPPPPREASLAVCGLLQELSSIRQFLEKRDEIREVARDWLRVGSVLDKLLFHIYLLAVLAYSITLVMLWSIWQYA

Glycine = assay: single point radioligand competition binding; parameters: species or system rat; conditions: 0.1 µM
[1] = compared to quinoline compound 51
[2] = compared to parent isoquinoline compound 52

CNc1nc(N2CCN(C)CC2)nc2ccc(Cl)cc12 [Compound 6]
fold increase in affinity (5-HT3A receptor; compared to compound 1): 16 fold

CN1CCN(c2ncc3cc(Cl)ccc3n2)CC1 [Compound 11, 6-Chloro-2-(4-methylpiperazin-1-yl)quinazoline]
fold reduction in affinity (5-HT3A receptor; compared to compound 6): ~10 fold

CN1CCN(c2nc(N)c3cc(Cl)ccc3n2)CC1 [Compound 12]
fold reduction in affinity (5-HT3A receptor): ~10 fold

CN1CCN(c2nc(N(C)C)c3cc(Cl)ccc3n2)CC1 [Compound 13]
fold reduction in affinity (5-HT3A receptor; compared to compound 6): ~10 fold

CNc1nc(N2CCN(C)CC2)nc2ccccc12 [Compound 21, N-Methyl-2-(4-methylpiperazin-1-yl)quinazolin-4-amine]
fold reduction in affinity (5-HT3A receptor; compared to compound 6): ~5 fold

CN1CCN(c2nc(N)c3ccccc3n2)CC1 [Compound 22]
selectivity for the 5-HT3A receptor over the H4R (5-HT3A receptor; H4R affinity from ref 35): ~40 000 fold
% inhibition of control specific binding ± s.e.m. (Glycine): <15%

CNc1cc(N2CCN(C)CC2)nc2ccccc12 [Compound 31, N-Methyl-2-(4-methylpiperazin-1-yl)quinolin-4-amine]
fold drop in affinity (5-HT3A receptor; [1]): ~30 fold

CN1CCN(c2cnc3ccccc3c2)CC1 [Compound 35, 3-(4-Methylpiperazin-1-yl)quinoline]
fold drop in affinity (5-HT3A receptor; compared to (iso)quinolines 51 and 52): > 250 fold

CN1CCN(c2cc3ccccc3c(N)n2)CC1 [Compound 39, 3-(4-Methylpiperazin-1-yl)isoquinolin-1-amine]
fold lower affinity (5-HT3A receptor; [2]): 140 fold

CNc1nc(N2CCN(C)CC2)cc2ccccc12 [Compound 40, N-Methyl-3-(4-methylpiperazin-1-yl)isoquinolin-1-amine]
fold lower affinity (5-HT3A receptor; [2]): ~5 fold

CN1CCN(c2ccc3c(N)cccc3n2)CC1 [Compound 46, 2-(4-Methylpiperazin-1-yl)quinolin-5-amine]
fold drop in affinity (5-HT3A receptor; compared to compound 30): ~100 fold
fold drop in affinity (5-HT3A receptor; [1]): ~1000 fold

CN1CCN(c2nc(O)c3cc(Cl)ccc3n2)CC1 [Compound 48]
fold reduction in affinity (5-HT3A receptor): ~500 fold

CN1CCN(c2cnc3ccccc3n2)CC1 [Compound 50]
fold lower affinity (5-HT3A receptor; compared to compounds 49, 51 and 52): 3–10 fold
